Data taken from PubChem BioAssay (NCI).
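Each compound was tested at five concentrations against cells in 96-well plates for 48 hours. At the TGI there is no net growth.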

How the values were obtained:
Assay in all cases: NCI anticancer screen, dose series, 48 h
[1] = test system: MOLT-4 leukemia
[2] = test system: HCC-2998 colon
[3] = test system: MDA-N
[4] = test system: HT29 colon
[5] = test system: HL-60(TB) leukemia
[6] = test system: OVCAR-3 ovarian
[7] = test system: HCT-15 colon
[8] = test system: TK-10 renal
[9] = test system: SF-268 CNS
[10] = test system: SF-539 CNS
[11] = test system: RXF 393 renal
[12] = test system: HS 578T breast
[13] = test system: U251 CNS
[14] = test system: KM12 colon
[15] = test system: NCI/ADR-RES ovarian
[16] = test system: MCF7 breast
[17] = test system: SF-295 CNS
[18] = test system: CAKI-1 renal
[19] = test system: IGROV1 ovarian

Compound | TGI [1] [µM] | TGI [2] [µM] | TGI [3] [µM] | TGI [4] [µM] | TGI [5] [µM] | TGI [6] [µM] | TGI [7] [µM] | TGI [8] [µM] | TGI [9] [µM] | TGI [10] [µM] | TGI [11] [µM] | TGI [12] [µM] | TGI [13] [µM] | TGI [14] [µM] | TGI [15] [µM] | TGI [16] [µM] | TGI [17] [µM] | TGI [18] [µM] | TGI [19] [µM]
C/C(=N\O)c1ccc(OCc2cc(C(F)(F)F)cc(C(F)(F)F)c2)cc1 | 68.5 | 98.4 | > 100 | > 100 | 25.5 | > 100 | > 100 | > 100 | > 100 | > 100 | 72.4 | > 100 | > 100 | 43.9 | > 100 | > 100 | > 100 | > 100 | > 100
N#Cc1ccc(C2ON=C(c3ccccc3)N2C23CC4CC(CC(C4)C2)C3)cc1 (stereo not drawn) | > 10 | > 10 | > 10 | > 10 | > 10 | > 10 | > 10 | > 10 | > 10 | > 10 | > 10 | > 10 | > 10 | > 10 | > 10 | > 10 | > 10 | > 10 | > 10
Cc1nc2ccc(Cl)cc2c2c1CCN2c1ccc(F)cc1 | > 100 | > 100 | > 100 | > 100 | 35.3 | > 100 | > 100 | > 100 | > 100 | 54.8 | 93.3 | > 100 | > 100 | > 100 | > 100 | 59.1 | > 100 | > 100 | 72.7
Cn1c(=O)c2c(nc3n2CCCC(=O)N3CCCCl)n(C)c1=O | > 100 | > 100 | > 100 | > 100 | > 100 | > 100 | > 100 | > 100 | > 100 |  | > 100 | > 100 | > 100 | > 100 | > 100 | > 100 | > 100 | > 100 | > 100
C/C(O)=C(/C=N/C(=S)Nc1ccccc1)C(=O)Nc1ccccc1C | > 100 | > 100 | > 100 | > 100 | > 100 | > 100 | > 100 | > 100 | > 100 | > 100 | > 100 | > 100 | > 100 | > 100 | > 100 | > 100 | > 100 | > 100 | > 100
O=C1c2ccccc2CC12Cc1cc3c(cc1C2)CCC3 | 82.1 | > 100 | > 100 | 62.1 | > 100 | > 100 | > 100 | > 100 | > 100 | > 100 | > 100 | > 100 | > 100 | 93.9 | > 100 | > 100 | > 100 | > 100 | > 100
COc1cccc(/C=C2\CCC(CN(C)C)C2=O)c1 (stereo not drawn) | 5.19 | 24.4 | 16.8 | 40.7 | 2.47 | 11.9 | 7.97 | 24.3 | 33.5 | 27.9 | 12.3 | > 89.4 | 26.5 | 15.1 | 6.56 | 13.2 | 30.8 | 15.7 | 23.4
CC(NNC(=O)c1ccncc1)c1ccccc1 (stereo not drawn) | > 100 | > 100 | > 100 | > 100 | > 100 | > 100 | > 100 | > 100 | > 100 | > 100 | > 100 | > 100 | > 100 | > 100 | > 100 | > 100 | > 100 | > 100 | > 100
COC(=O)C1(Cc2ccccc2)Cc2ccccc2C1O (stereo not drawn) | > 100 | > 100 | > 100 | > 100 | > 100 | > 100 | > 100 | > 100 | > 100 | > 100 | > 100 | > 100 | > 100 | > 100 | > 100 | > 100 | > 100 | > 100 | > 100
CN(C)c1ccc(N=C2N=C(Nc3ccccc3)C(=Nc3ccccc3)S2)cc1 | > 100 | > 100 | > 100 | > 100 | > 100 | > 100 | > 100 | > 100 | > 100 | > 100 | > 100 | > 100 |  | > 100 | > 100 | > 100 | > 100 | > 100 | > 100
O=C(N/C(=C\c1ccccc1)c1nc2ccccc2c(=O)o1)c1ccccc1 | > 100 | > 100 | > 100 | > 100 | > 100 | > 100 | > 100 | > 100 | > 78.2 | > 100 | > 100 | 75.7 | > 83.3 | > 100 | > 100 | > 100 | > 100 | > 100 | > 100
O=C(NCCCCCCCCNC(=O)Nc1cccc2ccccc12)Nc1cccc2ccccc12 | > 100 | > 100 | > 100 | > 100 | > 100 | > 100 | > 100 | > 100 | 45.8 | 24.6 | 67.6 | > 100 | 8.49 | > 100 | > 100 | > 100 | > 100 | > 100 | > 100
CCCCCCCCCCC/C=C(/C(=O)CCCO[Si](C)(C)C(C)(C)C)C(=O)OC | > 100 | > 100 | > 100 | > 100 | > 100 | > 100 | > 100 | > 100 | > 100 | > 100 | > 100 | > 100 | > 100 | > 100 | > 100 | > 100 | > 100 | > 100 | > 100
FC(F)(F)c1ccc2c(-c3cc[nH]c3)ccnc2c1 | 59.3 | > 100 | > 100 | 39.2 | 42.2 | 88 | > 100 | 70.1 |  | > 100 | 46.2 | 56.4 | > 100 | > 100 | > 100 | > 100 | 84.1 | 94 | > 100
Cc1n[nH]c(=O)n1C1CC1 | > 100 | > 100 | > 100 | > 100 | > 100 | > 100 | > 100 |  | > 100 | > 100 | > 100 | > 100 | > 100 | > 100 | > 100 | > 100 | > 100 | > 100 | > 100
COc1ccccc1NC1Oc2cc3c(cc2C(c2cc(OC)c(OC)c(OC)c2)C1C)OCO3 (stereo not drawn) | 33 | 7.93 | 1.82 | > 100 | 3.36 |  | > 100 | > 100 | > 46.2 | 5.24 | 7.62 | > 25.2 | 51.2 | 29.4 | > 33.1 | > 100 | 2.99 | 17.1 | > 100
Fc1cc2nc3n(c2cc1F)C(c1c(F)cccc1F)SC3 (stereo not drawn) | > 100 | > 100 | > 100 | > 100 | 51.2 | > 100 | > 100 | > 100 | > 100 | > 100 | > 100 | > 100 | > 100 | > 100 | > 100 | > 100 | > 100 | > 100 | > 100
NC(=O)N/N=C\CC(O)(C(F)(F)Cl)C(F)(F)Cl | > 10 | > 10 | > 10 | > 10 | > 10 | > 10 | > 10 | > 10 | > 10 | > 10 | > 10 | > 10 | > 10 | > 10 | > 10 | > 10 | > 10 | > 10 | > 10
CC(=O)NC1=NC(=O)/C(=C/c2ccccc2Cl)N1C | > 100 | > 100 | > 100 | > 100 | > 100 | > 100 | > 100 | > 100 | > 100 | > 100 | > 100 | > 100 | > 100 | > 100 | > 100 | > 100 | > 100 | > 100 | > 100
O=S(=O)(CC(Cl)c1ccccc1)c1nc2ccccc2s1 (stereo not drawn) | 7.64 | 31.8 | 18.1 | 21.2 | 4.43 | 23.2 | 21.9 | 34.2 | 33.1 | 23.9 | 42 | > 69 | 25.9 | 32 | 49 | 23.3 | 32.6 | 4.4 | 24.2
O=C(CCN1CCCCC1)Nc1ccc2c(c1)C(=O)c1ccc(NC(=O)CCN3CCCCC3)cc1C2=O | 14.5 | 13.5 | 3.03 | 9.99 | 20.8 | 20.9 | 7.63 | 21.2 | 24.2 | 7.13 | 17.6 | 26.2 | 9.97 | 3.26 | 25.8 | 5.91 | 10.4 | 27.5 | 13.2
O=c1[nH]c2nc3ccccc3c(=O)n2/c1=C/c1ccccc1 | > 100 | > 100 | 78.5 | 39.1 | > 100 | > 100 | > 100 | > 100 | > 100 | 44.9 | > 100 | > 100 | > 100 | > 100 | > 100 | > 100 | > 100 | > 100 | > 100
